Structures are written as SMILES.

IC50 data for 16 compounds are collected here from patent publication US12187723B2 (BRISTOL-MYERS SQUIBB COMPANY, priority 2019, dated 2025).

One test has as its target T1, human TLR8 (Homo sapiens, UniProt Q9NR97).
T1 construct: host or cells: HEK-Blue cells
T1 sequence (Q9NR97 27-1041): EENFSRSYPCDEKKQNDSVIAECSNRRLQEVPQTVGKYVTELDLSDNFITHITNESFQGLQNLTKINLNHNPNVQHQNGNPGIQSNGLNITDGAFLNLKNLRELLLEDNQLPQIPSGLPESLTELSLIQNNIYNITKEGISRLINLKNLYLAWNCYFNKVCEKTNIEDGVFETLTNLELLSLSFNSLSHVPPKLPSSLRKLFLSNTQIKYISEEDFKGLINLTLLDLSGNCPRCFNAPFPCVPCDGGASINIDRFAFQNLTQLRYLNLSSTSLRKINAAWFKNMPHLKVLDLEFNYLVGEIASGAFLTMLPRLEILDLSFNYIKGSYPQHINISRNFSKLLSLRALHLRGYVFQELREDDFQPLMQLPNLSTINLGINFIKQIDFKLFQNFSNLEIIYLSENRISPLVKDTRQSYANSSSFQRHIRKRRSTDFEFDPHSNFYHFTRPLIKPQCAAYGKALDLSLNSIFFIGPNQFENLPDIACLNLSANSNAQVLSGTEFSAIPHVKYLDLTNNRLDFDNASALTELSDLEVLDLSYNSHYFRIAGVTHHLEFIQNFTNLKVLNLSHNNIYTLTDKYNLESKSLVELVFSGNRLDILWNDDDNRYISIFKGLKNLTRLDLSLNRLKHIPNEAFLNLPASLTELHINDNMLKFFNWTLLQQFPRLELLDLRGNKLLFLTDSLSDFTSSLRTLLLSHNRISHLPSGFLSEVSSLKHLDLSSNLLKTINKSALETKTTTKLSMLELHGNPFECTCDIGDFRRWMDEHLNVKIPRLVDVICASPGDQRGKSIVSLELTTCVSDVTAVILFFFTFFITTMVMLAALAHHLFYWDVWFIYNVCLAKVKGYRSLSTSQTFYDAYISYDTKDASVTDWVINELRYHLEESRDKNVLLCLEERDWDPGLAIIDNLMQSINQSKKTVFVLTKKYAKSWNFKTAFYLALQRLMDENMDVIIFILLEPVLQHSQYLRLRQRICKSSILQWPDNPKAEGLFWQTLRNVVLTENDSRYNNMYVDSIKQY
Put plainly: TLR8 inhibition reporter assay (HEK-Blue SEAP). The note with it: HEK-Blue cells overexpressing human TLR8, R848 15.9 μM, 22 hour incubation. Format: cell-based. Put shortly:
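Human TLR7/8/9 HEK-Blue reporter lines; dose range 0.05 nM–50 μM; 30 min RT preincubation; stimulus gardiquimod 7.5 μM / R848 15.9 μM / ODN2006 5 nM respectively; 22 h, 37 °C; SEAP detected colorimetrically.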
(A reporter such as luciferase makes a cellular process visible.)

A further test has as its target T2, human TLR7 (Homo sapiens, UniProt Q9NYK1).
T2 construct: host or cells: HEK-Blue cells
T2 sequence (Q9NYK1 27-1049): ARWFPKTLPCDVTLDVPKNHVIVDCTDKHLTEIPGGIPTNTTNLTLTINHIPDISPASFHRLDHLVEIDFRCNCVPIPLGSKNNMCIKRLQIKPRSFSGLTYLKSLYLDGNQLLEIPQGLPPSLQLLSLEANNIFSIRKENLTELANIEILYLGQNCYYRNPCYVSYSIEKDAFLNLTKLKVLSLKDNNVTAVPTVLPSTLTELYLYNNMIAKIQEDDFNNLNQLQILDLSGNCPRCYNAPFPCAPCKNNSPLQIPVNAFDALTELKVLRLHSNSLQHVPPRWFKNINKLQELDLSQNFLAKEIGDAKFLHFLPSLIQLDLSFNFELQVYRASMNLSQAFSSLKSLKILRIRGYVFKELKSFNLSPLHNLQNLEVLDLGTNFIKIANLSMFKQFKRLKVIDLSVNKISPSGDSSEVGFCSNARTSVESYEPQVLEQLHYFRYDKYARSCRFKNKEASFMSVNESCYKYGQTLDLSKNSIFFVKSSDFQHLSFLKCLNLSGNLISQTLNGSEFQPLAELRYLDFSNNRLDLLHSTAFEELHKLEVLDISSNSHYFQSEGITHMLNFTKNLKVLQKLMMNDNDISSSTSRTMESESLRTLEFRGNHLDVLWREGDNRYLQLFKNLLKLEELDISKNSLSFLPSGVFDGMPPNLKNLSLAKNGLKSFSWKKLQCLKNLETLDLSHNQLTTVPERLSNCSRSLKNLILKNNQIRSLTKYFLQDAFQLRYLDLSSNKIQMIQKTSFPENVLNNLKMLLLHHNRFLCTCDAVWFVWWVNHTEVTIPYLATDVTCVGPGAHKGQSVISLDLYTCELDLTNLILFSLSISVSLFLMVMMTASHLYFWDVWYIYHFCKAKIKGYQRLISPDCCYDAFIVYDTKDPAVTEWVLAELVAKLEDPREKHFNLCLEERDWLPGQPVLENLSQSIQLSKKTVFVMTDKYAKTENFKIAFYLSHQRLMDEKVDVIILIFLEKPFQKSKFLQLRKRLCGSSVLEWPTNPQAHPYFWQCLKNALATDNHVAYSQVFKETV
As to the kind of experiment: TLR7 inhibition reporter assay (HEK-Blue SEAP). Format: cell-based. Particulars: HEK-Blue cells overexpressing human TLR7, gardiquimod 7.5 μM, 22 hour incubation. Put shortly: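 Cells (15000/well for TLR7, 20,000 for TLR8) were treated with compounds over 0.05 nM-50 μM final. After 22 h at 37° C, 5% CO2, SEAP was measured with HEK-Blue Detection reagent; percent inhibition was taken as reduction of agonist-plus-DMSO signal relative to a known inhibitor.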

One may read the IC50 as the midpoint of a concentration-inhibition curve. With `CCCN(CCC)[C@H]1CC[C@@H](n2c(=O)[nH]c3cc(-c4cc(OC)c5ncnn5c4)c(CC)cc32)CC1` [Example 168, 1-((1s,4s)-4-(dipropylamino)cyclohexyl)-6-ethyl-5-(8-methoxy-[1,2,4]triazolo[1,5-a]pyridin-6-yl)-1,3-dihydro-2H-benzo[d]imidazol-2-one], the concentration for half-maximal inhibition (IC50) against human TLR8 is 1.53 nM; against human TLR7 it was 5.45 nM.
For `Cc1cc2c(cc1-c1cc(C)c3ncnn3c1)[nH]c(=O)n2[C@@H]1CCCN(CC(=O)N(C)C)C1` [Example 95, (R)—N,N-dimethyl-2-(3-(6-methyl-5-(8-methyl-[1,2,4]triazolo[1,5-a]pyridin-6-yl)-2-oxo-2,3-dihydro-1H-benzo[d]imidazol-1-yl)piperidin-1-yl)acetamide], in that order: 83.4 nM and 117 nM.
For `CCCN1CCC[C@H](n2c(=O)[nH]c3cc(-c4cc(OC)c5ncnn5c4)c(C(C)C)cc32)C1` [Example 121, (S)-6-isopropyl-5-(8-methoxy-[1,2,4]triazolo[1,5-a]pyridin-6-yl)-1-(1-propylpiperidin-3-yl)-1,3-dihydro-2H-benzo[d]imidazol-2-one], in that order: 1.82 nM and 28.6 nM.
The like results for `COc1cc(-c2cc3[nH]c(=O)n(C4CCN(C5CCC5)CC4)c3cc2C(C)C)cn2ncnc12` [Example 156, 1-(1-cyclobutylpiperidin-4-yl)-6-isopropyl-5-(8-methoxy-[1,2,4]triazolo[1,5-a]pyridin-6-yl)-1,3-dihydro-2H-benzo[d]imidazol-2-one] were, in that order, 4.77 nM and 17.9 nM.
As to `COc1cc(-c2cc3[nH]c(=O)n(C4CCN(CC5CCOCC5)CC4)c3cc2C(C)C)cn2ncnc12` [Example 159, 6-isopropyl-5-(8-methoxy-[1,2,4]triazolo[1,5-a]pyridin-6-yl)-1-(1-((tetrahydro-2H-pyran-4-yl)methyl)piperidin-4-yl)-1,3-dihydro-2H-benzo[d]imidazol-2-one], the IC50 on human TLR8 worked out at 4.52 nM; against human TLR7, 7.23 nM.
The like results for `COc1cc(-c2cc3[nH]c(=O)n([C@@H]4CCCN(C)C4)c3cc2C(C)C)cn2ncnc12` [Example 136, (R)-6-isopropyl-5-(8-methoxy-[1,2,4]triazolo[1,5-a]pyridin-6-yl)-1-(1-methylpiperidin-3-yl)-1,3-dihydro-2H-benzo[d]imidazol-2-one] were, in that order, 2.01 nM and 2.18 nM.
The like results for `COc1cc(-c2cc3[nH]c(=O)n([C@H]4CCCN(C(C)C)C4)c3cc2C(C)C)cn2ncnc12` [Example 120, (S)-6-isopropyl-1-(1-isopropylpiperidin-3-yl)-5-(8-methoxy-[1,2,4]triazolo[1,5-a]pyridin-6-yl)-1,3-dihydro-2H-benzo[d]imidazol-2-one] were, in that order, 0.8 nM and 0.64 nM.
For `Cc1cc2c(cc1-c1cc(C)c3ncnn3c1)[nH]c(=O)n2[C@@H]1CCCN(CC(N)=O)C1` [Example 94, (R)-2-(3-(6-methyl-5-(8-methyl-[1,2,4]triazolo[1,5-a]pyridin-6-yl)-2-oxo-2,3-dihydro-1H-benzo[d]imidazol-1-yl)piperidin-1-yl)acetamide], in that order: 339 nM and 704 nM.
On to `Cc1c(-c2cc3[nH]c(=O)n([C@@H]4CCCN(C)C4)c3cc2C(C)C)cn2ncnc2c1C` [Example 147, (R)-5-(7,8-dimethyl-[1,2,4]triazolo[1,5-a]pyridin-6-yl)-6-isopropyl-1-(1-methylpiperidin-3-yl)-1,3-dihydro-2H-benzo[d]imidazol-2-one], for which the IC50 is 23.5 nM at human TLR8 and 66.9 nM against human TLR7.
For `COc1cc(-c2cc3[nH]c(=O)n([C@@H]4CCCN(C5CCOCC5)C4)c3cc2C(C)C)cn2ncnc12` [Example 143, (R)-6-isopropyl-5-(8-methoxy-[1,2,4]triazolo[1,5-a]pyridin-6-yl)-1-(1-(tetrahydro-2H-pyran-4-yl)piperidin-3-yl)-1,3-dihydro-2H-benzo[d]imidazol-2-one], in that order: 3.24 nM and 3.35 nM.
Consider `Cc1c(-c2cc3[nH]c(=O)n([C@@H]4CCCN(CC5CCOCC5)C4)c3cc2C(C)C)cn2ncnc2c1C` [Example 149, (R)-5-(7,8-dimethyl-[1,2,4]triazolo[1,5-a]pyridin-6-yl)-6-isopropyl-1-(1-((tetrahydro-2H-pyran-4-yl)methyl)piperidin-3-yl)-1,3-dihydro-2H-benzo[d]imidazol-2-one], for which the values for the 50% inhibitory concentration (IC50) on human TLR8 and at human TLR7 were 4.58 nM and 3.97 nM, respectively.
For `COc1cc(-c2cc3[nH]c(=O)n(C4CCN(C(=O)CN(C)C)CC4)c3cc2C)cn2ncnc12` [Example 100, 1-(1-(2-(dimethylamino)acetyl)piperidin-4-yl)-5-(8-methoxy-[1,2,4]triazolo[1,5-a]pyridin-6-yl)-6-methyl-1H-benzo[d]imidazol-2(3H)-one], in that order: 175 nM and 548 nM.
For `COc1cc(-c2cc3[nH]c(=O)n([C@@H]4CCCN(CC(C)C)C4)c3cc2C(C)C)cn2ncnc12` [Example 141, (R)-1-(1-isobutylpiperidin-3-yl)-6-isopropyl-5-(8-methoxy-[1,2,4]triazolo[1,5-a]pyridin-6-yl)-1,3-dihydro-2H-benzo[d]imidazol-2-one], in that order: 0.56 nM and 0.12 nM.
As to `Cc1c(-c2cc3[nH]c(=O)n([C@@H]4CCCN(C(C)C)C4)c3cc2C(C)C)cn2ncnc2c1C` [Example 145, (R)-5-(7,8-dimethyl-[1,2,4]triazolo[1,5-a]pyridin-6-yl)-6-isopropyl-1-(1-isopropylpiperidin-3-yl)-1,3-dihydro-2H-benzo[d]imidazol-2-one], the IC50 at human TLR8 stood at 2.1 nM; against human TLR7 it was 3.7 nM.
Take `COc1cc(-c2cc3[nH]c(=O)n(C4CCN(C(C)C)CC4)c3cc2C)cn2ncnc12` [Example 10, 1-(1-isopropylpiperidin-4-yl)-5-(8-methoxy-[1,2,4]triazolo[1,5-a]pyridin-6-yl)-6-methyl-1,3-dihydro-2H-benzo[d]imidazol-2-one]: the concentration for half-maximal inhibition (IC50) on human TLR8 turned out to be 89.7 nM; at human TLR7, 63.2 nM.
For `COc1cc(-c2cc3[nH]c(=O)n([C@H]4CCCN(C5CCOCC5)C4)c3cc2C(C)C)cn2ncnc12` [Example 124, (S)-6-isopropyl-5-(8-methoxy-[1,2,4]triazolo[1,5-a]pyridin-6-yl)-1-(1-(tetrahydro-2H-pyran-4-yl)piperidin-3-yl)-1,3-dihydro-2H-benzo[d]imidazol-2-one], in that order: 4.33 nM and 63.8 nM.
